Where “and” joins values, the source holds several entries; their conditions need not be identical. Identical values can stand only once. Entries after “also recorded” stand apart in the source; their conditions may differ.
How the values were obtained:
rat liver arginase [1] = target: T1, rat liver arginase (Rattus norvegicus, UniProt P07824); test: radioactive L-[guanidino-14C]arginine arginase assay (Example 3); assay type: biochemical; parameters: made in house
T1 sequence (P07824 1-323): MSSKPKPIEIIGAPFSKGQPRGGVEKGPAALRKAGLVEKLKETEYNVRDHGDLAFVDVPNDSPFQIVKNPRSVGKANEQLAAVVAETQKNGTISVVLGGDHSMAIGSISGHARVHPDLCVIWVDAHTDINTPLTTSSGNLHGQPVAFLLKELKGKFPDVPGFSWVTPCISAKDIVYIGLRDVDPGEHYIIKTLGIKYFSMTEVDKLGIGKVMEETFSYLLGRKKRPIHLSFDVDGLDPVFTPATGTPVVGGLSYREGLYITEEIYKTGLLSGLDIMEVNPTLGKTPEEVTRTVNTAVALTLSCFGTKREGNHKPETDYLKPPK
Experimental: Assays were performed in 100 micromolar MnCl2, 100 millimolar CHES-NaOH (pH 9.0). The reactions were initiated by addition of 5 microliters of a circa 1 unit per milliliter enzyme solution to 45 microliters of reaction mixture containing CHES buffer, 1.4 millimolar L-arginine, about 5.0×10^4 counts per minute of L-[guanidino- ^14C]arginine, and variable concentrations of the appropriate inhibitor. After a 5-15 minute reaction time, 200 microliters of a stop solution containing 7 molar urea, 10 millimolar L-arginine, and 0.25 molar acetic acid (pH 4.5) was added to the reaction (arginase has essentially no activity under these conditions). [^14C]-Urea was separated from non-reacted L-[guanidino-^14 C]arginine by treatment with 200 microliters of a 1:1 (vol/vol) slurry of DOWEX™ 50 W-X8 in water, and quantitated by adding 200 microliters of the supernatant from the DOWEX™ treatment to 3 milliliters of LIQUISCINT™ (National Diagnostics) for liquid scintillation counting in a Beckman LS5000CE counter.

arginase [2] = target: T2, arginase (Rattus norvegicus, UniProt P07824); test: isothermal titration calorimetry; assay type: binding; parameters: made in house
T2 sequence (P07824 1-323): T1 sequence (P07824 1-323)
Experimental: All calorimetry experiments were conducted on a MCS isothermal calorimeter from MicroCal, Inc. (Northampton, Mass.). Arginase was exhaustively dialyzed against a solution comprising 100 micromolar MnCl2 and 50 millimolar bicine-NaOH (pH 8.5). […] Prior to the titration experiment, samples were de-gassed under vacuum for 5 minutes. […] The contents of the sample cell were titrated with 30-40 aliquots (2.5 microliters each) of inhibitor (an initial 1 microliters injection was made, but not used in data analysis). After each injection, the heat change was measured and converted to the corresponding enthalpy value. The reaction mixture was continuously stirred at 400 rotations per minute during titration. Control experiments were carried out by titrating the inhibitor into the buffer solution under identical experimental conditions. Data analysis was performed using ORIGIN™ software provided with the instrument. The calorimetric data are presented with the background titrations subtracted from the experimental data. The amount of heat produced per injection was calculated by integration of the area under each peak. The data were fit to the following equation, […]

rat liver arginase [3] = target: T1, rat liver arginase; test: continuous chromogenic arginase assay with substrate 1-nitro-3-guanidinobenzene (compound 18); assay type: biochemical; parameters: made in house; conditions: 2 millimolar compound 18 as substrate; pseudo-turnover number, smaller = better inhibition
Experimental: The activity of wild-type arginase was monitored spectrophotometrically using a Pharmacia BIOTECH ULTROSPEC™ 2000. Assays were performed in a solution comprising 100 micromolar MnCl2 and 50 millimolar bicine-NaOH (pH 9.0). […] Eadie-Hofstee plots were used to analyze the data.

[4] = tested on: arginase activities of the various tissues; test: arginase activity in tissue homogenates (liver, IAS, rectum, brain) with NO synthase inhibitor; assay type: biochemical, opossum; conditions: 80 micromolar; basal and in the presence of L-HO-Arg
Experimental: Tissue samples of the opossum internal anal sphincter muscle (IAS), adjoining rectal tissue, liver, and brain were homogenized using an ULTRATURRAX™ tissue homogenizer (Tekamr, Cincinnati, Ohio) in a solution comprising 10 millimolar Tris-HCl, 150 millimolar KCl, and 25 millimolar MnCl2, at pH 7.4. The homogenates were dialyzed overnight against the same solution. […]
Arginase activity in tissue homogenates was evaluated using the radioactive L-[guanidino^14C]arginine assay of Rüegg and Russell (1980, Anal. Biochem. 102:206-212). […] Urea was separated from non-reacted L-[guanidino-^14C]arginine by treatment with 200 μl of 1:1 v/v slurry of DOWEX™ 50W-X8 in water, and quantitated by adding 200 microliters of the supernatant from the DOWEX™ treatment to 3 milliliters of LIQUISCENT™ (National Diagnostics) for liquid scintillation counting in a Beckman LS 5000CE counter. The data were analyzed using double-reciprocal plots of the initial velocity measurements; standard errors were determined by regression analysis.
Thus, it is possible that tissue variations in inhibition of arginase activities by L-HO-Arg could be due to depletion of added L-HO-Arg by conversion to NO. In order to test this possibility, the effects of L-HO-Arg on arginase activities in the tissue homogenates were determined in the presence of the NO synthase inhibitor L-NNA.

[5] = tested on: internal anal sphincter (IAS) smooth muscle; test: NANC nerve-mediated relaxation of IAS smooth muscle strips by electrical field stimulation; parameters: species or system opossum (Didelphis virginiana); conditions: L-NNA 3×10^−6 molar
arginase [6] = conditions: read-out: Ki previously reported; cited from earlier work
[7] = tested on: internal anal sphincter (IAS) smooth muscle; test: NANC nerve-mediated relaxation of IAS smooth muscle strips by electrical field stimulation; parameters: species or system opossum (Didelphis virginiana); conditions: for decrease in IAS tension after L-HO-Arg: 3×10^−4 molar
Excerpt: The entire anal canal was isolated carefully by dissection and transferred to a dissecting tray containing oxygenated (95% O2 plus 5% CO2) Krebs' solution. The composition of the Krebs' solution was as follows (in millimolar): NaCl, 118.07; KCl 4.69; […] MgSO4, 1.16; […] NaHCO3, 25 and glucose (Pufahl et al., 1995, Biochemistry 34:1930-1941; […] et al., 1993, Biochem. Biophys. Res. Commun. 196:1558-1565). The anal canal was cleaned of extraneous connective tissue and blood vessels. Following this, the anal canal was opened by making an incision along the longitudinal axis, and was pinned flat with the mucosal side facing up. The mucosa and submucosa were removed by sharp dissection. Circular smooth muscle strips were obtained from the whole circumference of the anal canal and divided into two equal strips (about 1×8 millimeters). Both ends of the muscle strips were secured with silk sutures (4-0: Ethicon Inc., Sommerville, N.J.) and used for the measurement of isometric tension. […] One end of each muscle strip was fixed to the bottom of the muscle bath with a tissue holder and the other end was attached to an isometric force transducer (model FT03; Grass Instruments Co., Quincy, Mass.) in order to measure isometric tension. Smooth muscle tension was recorded using a […] recorder (model […]; Beckman Instruments, Schiller Park, Ill.). […] J. Physiol. 255:[…]-[…]). Only those smooth muscle strips that developed spontaneous and steady tension and relaxed in response to electrical field stimulation (EFS) were used. EFS was delivered, via a pair of platinum wires, from a Grass stimulator (Model S88; Grass Instruments Co., Quincy, Mass.) connected in series to a Med-Lab […] (Med-Lab Instruments, Loveland, Colo.). […] These parameters of EFS are known to cause relaxation of IAS smooth muscle by selective activation of NANC myenteric neurons. Neurally-mediated relaxation of IAS smooth muscle strips was quantified in response to different frequencies of EFS. […] To determine the influence of arginase on NANC nerve-mediated relaxation of IAS, the effects of different doses of arginase on relaxation were first determined. […] The effectiveness of arginase inhibitors (L-OH-Arg and ABHA) on arginase-induced attenuation of EFS-induced IAS relaxation was then tested. Optimal doses of arginase and L-OH-Arg in IAS have been reported ([…] and […]. Pharmacol. Exp. Ther. 282:378-384). In order to determine the selectivity of arginase inhibitors in IAS, their effects on IAS relaxation suppressed by the NO synthase inhibitor L-NNA ([…]) were tested. […] To examine the physiological relevance of arginase inhibitors in IAS relaxation, the influence of selected concentrations of arginase inhibitors on EFS-induced IAS relaxation was examined. […] Each smooth muscle strip served as its own control. […] The results are expressed as means±standard error.

brain arginase activity = test: arginase activity in brain homogenate; assay type: biochemical, opossum; conditions: brain; read-out: IC50 for inhibition of arginase activity, brain homogenate
Excerpt: (§1) Tissue samples of the opossum internal anal sphincter muscle (IAS), adjoining rectal tissue, liver, and brain were homogenized using an ULTRATURRAX™ tissue homogenizer (Tekamr, Cincinnati, Ohio) in a solution comprising 10 millimolar Tris-HCl, 150 millimolar KCl, and 25 millimolar MnCl2, at pH 7.4. The homogenates were dialyzed overnight against the same solution. Dialyzed homogenates were centrifuged to remove insoluble material and concentrated with Amicon CENTRICON™ 30 microconcentrators to yield stock protein preparations having protein concentrations of 2.4 milligrams per milliliter for IAS smooth muscle, 3.6 milligrams per milliliter for rectal smooth muscle, 3 milligrams per milliliter for brain, and 17.5 milligrams per milliliter for liver. Protein concentrations were estimated with the Pierce Coomassie Protein Reagent kit using bovine serum albumin as a standard.
(§2) Arginase activity in tissue homogenates was evaluated using the radioactive L-[guanidino^14C]arginine assay of Rüegg and Russell (1980, Anal. Biochem. 102:206-212). Assays were performed using a solution comprising 100 millimolar CHES-NaOH and 0.1 millimolar MnCl2 at pH 9.0. The reactions were initiated by addition of 5 microliters of tissue homogenate to 45 microliters of reaction mixture that contained the CHES buffer, the appropriate concentration of arginine (0.5 to 5 millimolar) and about 5.0×10^4 counts per minute of L-[guanidino-^14C]arginine. IAS, rectal muscle, and brain homogenates were incubated with the assay mixture at room temperature for one hour, and the liver sample was incubated for 5 minutes. […] Urea was separated from non-reacted L-[guanidino-^14C]arginine by treatment with 200 μl of 1:1 v/v slurry of DOWEX™ 50W-X8 in water, and quantitated by adding 200 microliters of the supernatant from the DOWEX™ treatment to 3 milliliters of LIQUISCENT™ (National Diagnostics) for liquid scintillation counting in a Beckman LS 5000CE counter. The data were analyzed using double-reciprocal plots of the initial velocity measurements; standard errors were determined by regression analysis. […]

rectum arginase activity = test: arginase activity in rectum homogenate; assay type: biochemical, opossum; conditions: rectum; read-out: IC50 for inhibition of arginase activity, rectum homogenate
Excerpt: as §1
(§3) Arginase activity in tissue homogenates was evaluated using the radioactive L-[guanidino^14C]arginine assay of Rüegg and Russell (1980, Anal. Biochem. 102:206-212). Assays were performed using a solution comprising 100 millimolar CHES-NaOH and 0.1 millimolar MnCl2 at pH 9.0. The reactions were initiated by addition of 5 microliters of tissue homogenate to 45 microliters of reaction mixture that contained the CHES buffer, the appropriate concentration of arginine (0.5 to 5 millimolar) and about 5.0×10^4 counts per minute of L-[guanidino-^14C]arginine. IAS, rectal muscle, and brain homogenates were incubated with the assay mixture at room temperature for one hour, and the liver sample was incubated for 5 minutes. The reactions were stopped by addition of 200 microliters of a stop solution containing 0.25 molar acetic acid, 7 molar urea, and 10 millimolar […] at pH 4.5. Arginase has essentially no activity at the low pH of the stop solution. [^14C] Urea was separated from non-reacted L-[guanidino-^14C]arginine by treatment with 200 μl of 1:1 v/v slurry of DOWEX™ 50W-X8 in water, and quantitated by adding 200 microliters of the supernatant from the DOWEX™ treatment to 3 milliliters of LIQUISCENT™ (National Diagnostics) for liquid scintillation counting in a Beckman LS 5000CE counter. The data were analyzed using double-reciprocal plots of the initial velocity measurements; standard errors were determined by regression analysis.
(§4) Assays in the presence of the inhibitors N^ω-hydroxy-L-arginine (1 to 100 micromolar) and ABHA (0.05 to 100 micromolar) were performed as described above. The amino acid D-ornithine served as a control in these experiments, since this amino acid, unlike L-omithine, is not an inhibitor of arginase.

liver arginase activity = test: arginase activity in liver homogenate; assay type: biochemical, opossum; conditions: for potency against liver arginase activity relative to non-hepatic tissues: liver versus IAS, rectum, brain
Excerpt: as §1, §3, §4

rat liver arginase [8] = target: T1, rat liver arginase; test: [14C-guanidino]-arginine arginase activity assay (Example 2); assay type: biochemical; conditions: 100 millimolar CHES, pH 9.0, 1 millimolar arginine; read-out: IC50 for inhibition of arginase
Experimental: Arginase activity was assessed using the ^(14C-guanidino)-arginine assay of Rüegg et al. (1980, Anal. Biochem. 102:206-212), as described (Reczkowski et al., 1994, Arch. Biochem. Biophys. 312:31-37). […] […] et al., 1994, Biochem. Biophys. Res.

IAS arginase activity = test: arginase activity in IAS homogenate; assay type: biochemical, opossum; conditions: IAS; read-out: IC50 for inhibition of arginase activity, IAS homogenate
Excerpt: as §1, §2

[9] = substrate: N=C(N)Nc1cccc([N+](=O)[O-])c1; test: continuous chromogenic arginase assay with substrate 1-nitro-3-guanidinobenzene (compound 18); assay type: biochemical, rat; conditions: other: as substrate, bicine pH 9.0

With `N[C@@H](CSCCB(O)O)C(=O)O` [compound 15, S-(2-boronoethyl)-L-cysteine] the Ki (rat liver arginase [1]) was 0.7 µM, the Kd (arginase [2]) was 2.22 µM and the “association constant (Ka)” value (arginase [2]; pH 8.5, 25° C.) was 4.50×10^5 inverse molar. The “enthalpy change (ΔH) of binding” value (arginase [2]; pH 8.5, 25° C.) was −12.75 kilocalories per mole, the “stoichiometry (n), moles bound per mole of arginase monomer” value (arginase [2]; pH 8.5, 25° C.) was 0.96 and 0.964 and the “tnpseudo (moles of inhibitor/mole of arginase)” value (rat liver arginase [3]) was 1.00 ± 0.004 moles of inhibitor/mole of arginase.

With `N=C(NCCC[C@H](N)C(=O)O)N[N+](=O)[O-]` [L-NNA, N^ω-nitro-L-arginine] the “effect of L-NNA on arginase activities” value [4] was “no significant effect”, the “IAS relaxation in the presence of L-NNA” value ([5]; 0.5 Hertz EFS) was 0±0% and the “IAS relaxation in the presence of L-NNA” value ([5]; 1 Hertz EFS) was 0.6±0.6%. The “IAS relaxation in the presence of L-NNA” value ([5]; 2 Hertz EFS) was 1.8±1.1% and the “IAS relaxation in the presence of L-NNA” value ([5]; 5 Hertz EFS) was 5.4±2.1%.

In the case of `N=C(NO)NCCC[C@H](N)C(=O)O` [N-hydroxyarginine, N^ω-hydroxy-L-arginine], the Ki (arginase [6]) is listed as 42 µM, the “decrease in IAS tension after L-HO-Arg” value ([7]; 0.5 Hertz EFS) is listed as 57.4±4.9% and the “decrease in IAS tension after L-HO-Arg” value ([7]; 1 Hertz EFS) is listed as 68.8±4.9%. The “effect on arginase-suppressed EFS-induced IAS relaxation” value ([7]; exogenous arginase, L-HO-Arg 1×10^−4 molar) was “antagonized the effect of arginase; also recorded: reversal”, the “augmentation of NANC nerve-mediated IAS relaxation by EFS” value ([7]; lower frequencies of EFS, listed as L-HO-Arg) was “significant and concentration-dependent augmentation” and the “reversal of L-NNA-suppressed IAS relaxation” value ([7]; with L-NNA, L-HO-Arg and ABHA 3×10^−4 molar) was “dose-dependent and complete reversal; also recorded: completely reversed”. The IC50 (brain arginase activity) was 40 µM, the IC50 (rectum arginase activity) was 42 µM and the “potency against liver arginase activity relative to non-hepatic tissues” value (liver arginase activity; listed as L-HO-Arg) was 10-20 fold. For the same molecule, the “potency against liver arginase activity relative to non-hepatic tissues” value (liver arginase activity; listed as N^107-hydroxy-L-arginine) was “about 10 fold”, the IC50 (liver arginase activity; liver, read-out: IC50 for inhibition of arginase activity, liver homogenate) was 2.4 µM and the IC50 (rat liver arginase [8]) was 80 µM. It also gave an IC50 (IAS arginase activity) of 25 µM.

B1: Recombinant rat liver arginase (Rattus norvegicus) (protein)
chain: T1 sequence (P07824 1-323)
notes: made in house
B1 showed a Km [9] of 1.6±0.2 millimolar.
